Legend:
Test in all cases: relative viability (nuclei count vs DMSO), 5 days (fraction); higher = more cells survive
[1] = tested on: NCI-H2405
How it was run: (§1)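 Each reported value is a median over duplicate plates. It expresses relative viability: treated-well nuclei count divided by vehicle-well nuclei count. Lung cancer cell lines in 1536-well plates were dosed by pin tool a day after seeding, alone with one drug or with a fixed anchor-drug dose plus five library-drug doses (not always all listed) in √10 steps, and nuclei were counted after 5 days.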

[2] = tested on: HCC-44
How it was run: as §1

[3] = tested on: NCI-H1944
How it was run: as §1

[4] = tested on: NCI-H650
How it was run: as §1

[5] = tested on: NCI-H2085
How it was run: as §1

[6] = tested on: SK-MES-1
How it was run: as §1

[7] = tested on: NCI-H1793
How it was run: as §1

[8] = tested on: NCI-H1395
How it was run: as §1

[9] = tested on: NCI-H520
How it was run: as §1

[10] = tested on: NCI-H2087
How it was run: as §1

[11] = tested on: LCLC-103H
How it was run: as §1

[12] = tested on: NCI-H2023
How it was run: as §1

[13] = tested on: COR-L23
How it was run: as §1

[14] = tested on: LU99A
How it was run: as §1

[15] = tested on: ChaGo-K-1
How it was run: as §1

[16] = tested on: EMC-BAC-2
How it was run: as §1

[17] = tested on: H3255
How it was run: as §1

[18] = tested on: HCC-827
How it was run: as §1

[19] = tested on: NCI-H838
How it was run: as §1

[20] = tested on: NCI-H1651
How it was run: as §1

[21] = tested on: EPLC-272H
How it was run: as §1

Question: Which results are given for `Cc1sc2c(c1C)C(c1ccc(Cl)cc1)=N[C@@H](CC(=O)OC(C)(C)C)c1nnc(C)n1-2` [JQ1] + Nc1ncn([C@H]2C[C@H](O)[C@@H](CO)O2)c(=O)n1 [Decitabine] (partner 2 µM)?
Answer: relative viability ([1]; first compound 0.04 µM): 0.81; relative viability ([1]; first compound 0.4 µM): 0.75; relative viability ([1]; first compound 1.265 µM): 0.577; relative viability ([1]; first compound 4 µM): 0.471; relative viability ([2]; first compound 0.04 µM): 0.955; relative viability ([2]; first compound 0.1265 µM): 0.63; relative viability ([2]; first compound 0.4 µM): 0.834; relative viability ([2]; first compound 1.265 µM): 0.903; relative viability ([2]; first compound 4 µM): 0.516; relative viability ([3]; first compound 0.04 µM): 0.438; relative viability ([3]; first compound 0.1265 µM): 0.405; relative viability ([3]; first compound 0.4 µM): 0.409; relative viability ([3]; first compound 1.265 µM): 0.335; relative viability ([3]; first compound 4 µM): 0.313; relative viability ([4]; first compound 0.04 µM): 0.278; relative viability ([4]; first compound 0.1265 µM): 0.305; relative viability ([4]; first compound 0.4 µM): 0.316; relative viability ([4]; first compound 1.265 µM): 0.251; relative viability ([4]; first compound 4 µM): 0.249; relative viability ([5]; first compound 0.04 µM): 0.538; relative viability ([5]; first compound 0.1265 µM): 0.595; relative viability ([5]; first compound 0.4 µM): 0.509; relative viability ([5]; first compound 1.265 µM): 0.454; relative viability ([5]; first compound 4 µM): 0.473; relative viability ([6]; first compound 0.04 µM): 0.347; relative viability ([6]; first compound 0.1265 µM): 0.385; relative viability ([6]; first compound 0.4 µM): 0.315; relative viability ([6]; first compound 1.265 µM): 0.194; relative viability ([6]; first compound 4 µM): 0.216; relative viability ([7]; first compound 0.04 µM): 0.557; relative viability ([7]; first compound 0.1265 µM): 0.433; relative viability ([7]; first compound 0.4 µM): 0.468; relative viability ([7]; first compound 1.265 µM): 0.418; relative viability ([7]; first compound 4 µM): 0.484; relative viability ([8]; first compound 0.04 µM): 0.683; relative viability ([8]; first compound 0.1265 µM): 0.701; relative viability ([8]; first compound 0.4 µM): 0.71; relative viability ([8]; first compound 1.265 µM): 0.587; relative viability ([8]; first compound 4 µM): 0.457; relative viability ([9]; first compound 0.04 µM): 0.52; relative viability ([9]; first compound 0.1265 µM): 0.561; relative viability ([9]; first compound 0.4 µM): 0.443; relative viability ([9]; first compound 1.265 µM): 0.349; relative viability ([9]; first compound 4 µM): 0.355; relative viability ([10]; first compound 0.04 µM): 0.316; relative viability ([10]; first compound 0.1265 µM): 0.251; relative viability ([10]; first compound 0.4 µM): 0.262; relative viability ([10]; first compound 1.265 µM): 0.151; relative viability ([10]; first compound 4 µM): 0.18; relative viability ([11]; first compound 0.04 µM): 0.684; relative viability ([11]; first compound 0.1265 µM): 0.575; relative viability ([11]; first compound 0.4 µM): 0.544; relative viability ([11]; first compound 1.265 µM): 0.48; relative viability ([11]; first compound 4 µM): 0.542; relative viability ([12]; first compound 0.04 µM): 0.233; relative viability ([12]; first compound 0.1265 µM): 0.228; relative viability ([12]; first compound 0.4 µM): 0.198; relative viability ([12]; first compound 1.265 µM): 0.14; relative viability ([12]; first compound 4 µM): 0.13; relative viability ([13]; first compound 0.04 µM): 0.421; relative viability ([13]; first compound 0.1265 µM): 0.351; relative viability ([13]; first compound 0.4 µM): 0.387; relative viability ([13]; first compound 1.265 µM): 0.272; relative viability ([13]; first compound 4 µM): 0.332; relative viability ([14]; first compound 0.04 µM): 0.932; relative viability ([14]; first compound 0.4 µM): 0.623; relative viability ([14]; first compound 1.265 µM): 0.293; relative viability ([14]; first compound 4 µM): 0.254; relative viability ([15]; first compound 0.04 µM): 0.552; relative viability ([15]; first compound 0.1265 µM): 0.472; relative viability ([15]; first compound 0.4 µM): 0.539; relative viability ([15]; first compound 1.265 µM): 0.392; relative viability ([15]; first compound 4 µM): 0.36; relative viability ([16]; first compound 0.04 µM): 0.947; relative viability ([16]; first compound 0.4 µM): 0.944; relative viability ([16]; first compound 1.265 µM): 0.726; relative viability ([16]; first compound 4 µM): 0.605; relative viability ([17]; first compound 0.04 µM): 0.562; relative viability ([17]; first compound 0.4 µM): 0.539; relative viability ([17]; first compound 1.265 µM): 0.305; relative viability ([17]; first compound 4 µM): 0.249; relative viability ([18]; first compound 0.04 µM): 0.34; relative viability ([18]; first compound 0.1265 µM): 0.302; relative viability ([18]; first compound 1.265 µM): 0.333; relative viability ([18]; first compound 4 µM): 0.314; relative viability ([19]; first compound 0.04 µM): 0.458; relative viability ([19]; first compound 0.1265 µM): 0.371; relative viability ([19]; first compound 0.4 µM): 0.347; relative viability ([19]; first compound 1.265 µM): 0.282; relative viability ([19]; first compound 4 µM): 0.235; relative viability ([20]; first compound 0.04 µM): 0.651; relative viability ([20]; first compound 0.1265 µM): 0.487; relative viability ([20]; first compound 0.4 µM): 0.442; relative viability ([20]; first compound 1.265 µM): 0.524; relative viability ([20]; first compound 4 µM): 0.411; relative viability ([21]; first compound 0.04 µM): 0.365; relative viability ([21]; first compound 0.1265 µM): 0.352; relative viability ([21]; first compound 0.4 µM): 0.323; relative viability ([21]; first compound 1.265 µM): 0.246; relative viability ([21]; first compound 4 µM): 0.253

— the supplement of paper PMC10307832
